According to US11679098B2, “Methods for treating diseases” (UNIVERSITY OF LOUISVILLE RESEARCH FOUNDATION, INC., priority 2018, dated 2023):

Assays:
[1] = DTNB assay for reactivity with free thiols, cysteine; assay type: physicochemical; settings: 0.25 mM cysteine, 30 min at 37° C., pH 8.0
Procedure: (§1) Dithiobis-2-nitrobenzioc acid (DTNB) assay for free sulfhydryls. Similar to previously described in SALIPUR et al. “A novel small molecule that induces oxidative stress and selectively kills malignant cells” Free Radic Biol Med. (2014) Vol. 68, pp. 110-121, which is herein incorporated by reference in its entirety, reactivity with free sulfhydryls was evaluated using DTNB (Sigma). Briefly, a 4× solution of DTNB (6 mM DTNB, 50 mM sodium acetate in 100 mM Tris-HCl, pH 8.0) and solutions of 0.5 mM cysteine (Sigma) and reduced glutathione (GSH, Sigma) in 100 mM Tris-HCl, pH 8.0 were freshly prepared. The 200 mM stock solutions of XB05, other compounds, diethylmaleate (Sigma), and maleimide (Sigma) were prepared in 100% DMSO, and subsequently diluted to 2× working solutions in 100 mM Tris-HCl, pH 8.0. Thiol compounds (final concentration 0.25 mM) and thiol-reactive compounds (final concentrations 0.04-5 mM) or vehicle were added in duplicate to a 96-well plate and incubated for 30 min at 37° C. DTNB solution was then added to each well (final concentration 400 μM), and incubated at room temperature for an additional 5 min. Absorbance at 412 nm was determined by a Biotek HT Synergy plate reader (Winooski, Vt.).

[2] = DTNB assay for reactivity with free thiols, reduced glutathione; assay type: physicochemical; settings: 0.25 mM reduced glutathione, 30 min at 37° C., pH 8.0
Procedure: as §1

[3] = system: A549 (lung adenocarcinoma); assay: MTT antiproliferative assay in A549 cells; assay type: cell-based, human; settings: Homo sapiens, 72 hrs treatment, MTT
Procedure: (§2) Cell culture. A549 and IMR-90 cells were purchased from the American Type Culture Collection (ATCC), while HOP-62 and HOP-92 were obtained from the cell line repository at the National Cancer Institute. Cells were grown in the appropriate medium supplemented with 10% fetal bovine serum (FBS, Life Technologies, Grand Island, N.Y.), 62.5 μg/mL penicillin and 100 μg/mL streptomycin (Life Technologies) in a humidified incubator at 37° C. with 5% CO2. The media were as follows: Dulbecco's modified Eagle's medium (DMEM, Life Technologies) for A549 cells; RPMI 1640 (Life Technologies) for HOP-62 and HOP-92 cells; Eagle's minimal essential medium (EMEM) with Eagle's balanced salt solution (EBSS), 2 mM L-glutamine, 1500 mg/L sodium bicarbonate (Lonza, Walkersville, Md.), supplemented with 1 mM sodium pyruvate (Life Technologies) and non-essential amino acids (Life Technologies) for IMR-90 cells. Cell lines were verified with a 9-marker short tandem repeat profile and inter-species contamination test (Idexx BioResearch), although A549 cells utilized in proliferation assays were missing the Y allele at the amelogenin marker.
(§3) Cell proliferation & viability assays. Anti-proliferative activity of XB05 and other compounds was evaluated using a previously published 3-(4,5-dimethylthiazol-2-yl)-2,5-diphenyltetrazolium bromide (MTT) assay protocol (MORGAN “Tetrazolium (MTT) assay for cellular viability and activity” Methods Mol Biol. (1998) Vol. 79, pp. 179-83, which is herein incorporated by reference in its entirety, BATES et al. “Antiproliferative activity of G-rich oligonucleotides correlates with protein binding” J Biol Chem. (1999) Vol. 274, No. 37, pp. 26369-26377, which is herein incorporated by reference in its entirety, SALIPUR et al. “A novel small molecule that induces oxidative stress and selectively kills malignant cells” Free Radic Biol Med. (2014) Vol. 68, pp. 110-121, which is herein incorporated by reference in its entirety). Cells were seeded in quadruplicate wells in 96-well plates and allowed to adhere overnight. […] After 72 hrs of treatment with XB05 or other compounds, MTT (Sigma, St. Louis, Mo.) was added for 4 hrs prior to cell lysis. Each assay was performed in at least triplicate.
(§4) XB05 and related compounds were assessed for anti-proliferative activity in malignant (A549) and non-malignant (IMR-90) cells (Table A2).

[4] = system: IMR-90 (non-malignant lung fibroblasts); assay: MTT antiproliferative assay in IMR-90 cells; assay type: cell-based; settings: Homo sapiens, 72 hrs treatment, read-out: MTT Antiproliferative Activity - IC50 (μM) IMR0 (non-malignant lung fibroblasts)
Procedure: as §2, §3, §4

SMILES | DTNB Reactivity with Thiols - DTNB assay with Cysteine [1] | DTNB Reactivity with Thiols - DTNB assay with Glutathione [2] | IC50 [3] | IC50 [4]
C#CC(O)CCCCC (stereo not shown) [Compound 1-Octyn-3-ol, 1-Octyn-3-ol] | Reactive | ND (DTNB ND - not detected at concentrations up to 2.5 mM) | > 10 µM | > 10 µM
CCCCCC(C#CC(F)(F)Br)OC (stereo not shown) [JAB-4-155] | ND (DTNB ND - not detected at concentrations up to 2.5 mM) | ND (DTNB ND - not detected at concentrations up to 2.5 mM) | 3.5 µM | > 10 µM
CCCCCC(O)C#CC(F)(F)F (stereo not shown) [JAB-4-156] | ND (DTNB ND - not detected at concentrations up to 2.5 mM) | ND (DTNB ND - not detected at concentrations up to 2.5 mM) | > 10 µM | > 10 µM
CCCCCCC#CC(F)(F)Br [JAB-4-158] | ND (DTNB ND - not detected at concentrations up to 2.5 mM) | ND (DTNB ND - not detected at concentrations up to 2.5 mM) | 2.1 µM | > 10 µM
CCCCCC(=O)C#CC(F)(F)Br [JAB-4-163] | ND (DTNB ND - not detected at concentrations up to 2.5 mM) | ND (DTNB ND - not detected at concentrations up to 2.5 mM) | > 10 µM | > 10 µM
CCCCCC(=O)/C=C(\NCCC)C(F)(F)Br [JAB-4-165] | ND (DTNB ND - not detected at concentrations up to 2.5 mM) | ND (DTNB ND - not detected at concentrations up to 2.5 mM) | > 10 µM | > 10 µM
CC/C=C\CCC(O)C#CC(F)(F)Br (stereo not shown) [JAB-4-169] | ND (DTNB ND - not detected at concentrations up to 2.5 mM) | ND (DTNB ND - not detected at concentrations up to 2.5 mM) | 0.4 µM | 3.8 µM
CCCCCC(Cl)C#CC(F)(F)Br (stereo not shown) [MNR-1-102] | ND (DTNB ND - not detected at concentrations up to 2.5 mM) | Reactive | > 10 µM | > 10 µM
CCCCCC(O)C#CC(F)(F)Oc1ccc(F)cc1 (stereo not shown) [MNR-1-110] | ND (DTNB ND - not detected at concentrations up to 2.5 mM) | ND (DTNB ND - not detected at concentrations up to 2.5 mM) | > 10 µM | > 10 µM
CCCCCC(O)C#CC(F)(F)SCc1ccccc1 (stereo not shown) [MNR-1-111] | ND (DTNB ND - not detected at concentrations up to 2.5 mM) | ND (DTNB ND - not detected at concentrations up to 2.5 mM) | > 10 µM | > 10 µM
CCCC(C)C(O)C#CC(F)(F)Br (stereo not shown) [MNR-1-117] | ND (DTNB ND - not detected at concentrations up to 2.5 mM) | ND (DTNB ND - not detected at concentrations up to 2.5 mM) | 1.9 µM | 7.9 µM
CCCCCC(C)(O)C#CC(F)(F)Br (stereo not shown) [MNR-1-118] | ND (DTNB ND - not detected at concentrations up to 2.5 mM) | ND (DTNB ND - not detected at concentrations up to 2.5 mM) | 8.2 µM | > 10 µM
CCCC(O)C#CC(F)(F)Br (stereo not shown) [MNR-1-122] | ND (DTNB ND - not detected at concentrations up to 2.5 mM) | ND (DTNB ND - not detected at concentrations up to 2.5 mM) | 0.8 µM | 1.1 µM
OC(C#CC(F)(F)Br)CCCCc1ccccc1 (stereo not shown) [MNR-1-129] |  |  | > 10 µM | > 10 µM
CCC#CCCCCCCCC(O)C#CC(F)(F)Br (stereo not shown) [MNR-1-147] |  |  | 1.1 µM | 4 µM
CC(C)(C)OC(=O)NCCCCCCCCCC(O)C#CC(F)(F)Br (stereo not shown) [MNR-1-186] |  |  | > 10 µM | > 10 µM

SMILES | DTNB Reactivity with Thiols - DTNB assay with Cysteine [1] | DTNB Reactivity with Thiols - DTNB assay with Glutathione [2] | IC50 [3] | IC50 [4]
O=C(CCCCC1SCC2NC(=O)NC21)NCCOCCOCCOCCOCCC(=O)NCCCCCCCCCC(O)C#CC(F)(F)Br (stereo not shown) [MNR-2-6] |  |  | > 10 µM | > 10 µM
CCCCCC(C#CC(F)(F)Br)OC1CCCCO1 (stereo not shown) [MNR-3-27] |  |  | 1.9 µM | 3.7 µM
CCCCC[C@@H](O)C#CC(F)(F)Br [MNR-3-38] | ND (DTNB ND - not detected at concentrations up to 2.5 mM) | ND (DTNB ND - not detected at concentrations up to 2.5 mM) | 0.4 µM | 1.5 µM
CCCCC[C@H](O)C#CC(F)(F)Br [MNR-3-41] |  |  | 4.8 µM | > 10 µM
CCCCCC(C#CC(F)(F)Br)OC(C)=O (stereo not shown) [MNR-3-43] | ND (DTNB ND - not detected at concentrations up to 2.5 mM) | ND (DTNB ND - not detected at concentrations up to 2.5 mM) | 0.9 µM | 5.4 µM
CCCCCCCCCC(O)C#CC(F)(F)Br (stereo not shown) [MNR-3-69] |  |  | 1 µM | 2.8 µM
OC(C#CC(F)(F)Br)CCc1ccccc1 (stereo not shown) [MNR-3-82] |  |  | 1.2 µM | 2.8 µM
CC(C)(C)C(O)C#CC(F)(F)Br (stereo not shown) [MNR-3-85] |  |  | > 10 µM | > 10 µM
CC(C)C(O)C#CC(F)(F)Br (stereo not shown) [MNR-3-86] |  |  | > 10 µM | > 10 µM
CCCCCCCCCCCC(O)C#CC(F)(F)Br (stereo not shown) [MNR-3-89] |  |  | 1.1 µM | 2.7 µM
OC(C#CC(F)(F)Br)C1CCCCC1 (stereo not shown) [MNR-3-90] |  |  | 0.9 µM | 3.1 µM
CCCCCC(O)C#CC(F)F (stereo not shown) [MNR-3-91] |  |  | > 10 µM | > 10 µM
CCCCCC(O)C#CCBr (stereo not shown) [MNR-3-92] | Reactive | Reactive | 7.1 µM | 8.7 µM
OC(C#CC(F)(F)Br)c1ccccc1 (stereo not shown) [MNR-3-93] |  |  | > 10 µM | > 10 µM
CCCCCCCC(O)C#CC(F)(F)Br (stereo not shown) [MNR-3-94] |  |  | 0.9 µM | 2.7 µM
